As a reminder, the inhibition is the change of the read-out against control, counted positive when it falls.

These results are taken from ChEMBL document CHEMBL3244094, “Nonenolizable podophyllotoxin derivatives” (1977).

The source made the active and inactive calls. The rule behind the calls is not given here.

The test system of assay [1] is P815. Briefly: Cytotoxicity against mouse P815 cells assessed as concentration required to produce 50% arrest of mitotic activity. In kind it is functional.
Assay [2] deals with TA3. The experiment in a line: Cytotoxicity against mouse TA3 cells assessed as concentration required to produce 50% decrease in protein production. In kind it is functional.
In assay [3] the test system is L5178Y. Briefly: Cytotoxicity against mouse L5178Y cells assessed as concentration required to produce 50% inhibition of cell count in suspension of growing cells. In kind it is functional.
The species named for assay [4] is Gallus gallus. Briefly: Competitive binding affinity to tubulin in chick embryo brain by radioactive colchicine displacement assay. In kind it is tissue-based.
Assay [5] is filed under the species Gallus gallus. The experiment in a line: Inhibition of tubulin in chick brain assessed as concentration required to inhibit microtubule formation by 50%.
In assay [6] the test system is L1210. The experiment in a line: Anticancer activity against mouse L1210 cells allografted in mouse. In kind it is functional, cell-based.
The subject of assay [7] is TA3. The experiment in a line: Anticancer activity against mouse TA3 cells allografted in mouse. The assay is classed as functional, cell-based.
Assay [8] has as its system TLX-5. Briefly: Anticancer activity against mouse TLX5 cells allografted in mouse. The assay is classed as functional, cell-based.
Assay [9] is described as follows: In vivo inhibition of microtubule assembly in Stentor coeruleus assessed as minimum concentration required to delay regeneration of ciliated oral apparatus by […] analysis. In kind it is functional.
The species entered for assay [10] is Gallus gallus. The experiment in a line: Inhibition of tubulin in chick brain assessed as concentration required to inhibit microtubule formation by 50% relative to podophyllotoxin. Particulars: concentration not given here.
The species named for assay [11] is Gallus gallus. Briefly: Competitive binding affinity to tubulin in chick embryo brain by radioactive colchicine displacement assay relative to podophyllotoxin.
In assay [12] the test system is Caelifera. The experiment in a line: Competitive binding affinity to tubulin in grasshopper embryo by radioactive colchicine displacement assay.
The nature of assay [13]: In vivo inhibition of microtubule assembly in Stentor coeruleus assessed as minimum concentration required to delay regeneration of ciliated oral apparatus by […] analysis relative to podophyllotoxin. The assay is classed as functional.

For the compound `COc1cc([C@H]2c3cc4c(cc3C[C@H]3CC(=O)C[C@@H]32)OCO4)cc(OC)c1OC`, the Activity in [1] was determined as 1 ×10⁻⁷ M; in assay [2], 15 ×10⁻⁷ M; in [3] it was 15 ×10⁻⁷ M; in assay [5], 50 ×10⁻⁷ M. For the same compound, the KA in assay [4] was found to be 0.02 ×10⁶ L/mol.

As to `COc1cc([C@H]2c3cc4c(cc3[C@@H](O)[C@H]3CS(=O)(=O)C[C@H]23)OCO4)cc(OC)c1OC`, the Activity was greater than 220 ×10⁻⁷ M in assay [1], greater than 100 ×10⁻⁷ M in assay [2], greater than 220 ×10⁻⁷ M in assay [3] and greater than 1000 ×10⁻⁷ M in assay [5]. For the same compound, the outcome in [4] was Active.

On to `COc1cc([C@H]2c3cc4c(cc3C[C@H]3COC(=O)[C@H]32)OCO4)cc(OC)c1OC` [ISOPICRODEOXYPODOPHYLLOTOXIN], for which the Activity in assay [1] was determined as 1.3 ×10⁻⁷ M.

For the compound `COc1cc([C@H]2c3cc4c(cc3[C@@H](O)[C@H]3COC(=O)[C@H]23)OCO4)cc(OC)c1OC`, the Activity came to 0.12 ×10⁻⁷ M in assay [1], 3 ×10⁻⁷ M in assay [2], 0.14 ×10⁻⁷ M in assay [3] and 6 ×10⁻⁷ M in [5]. In addition, the outcome in [6], in [7] and in [8] was inactive. Moreover, the MEC in [9] was found to be 4 µM. The KA in assay [4] was 2 ×10⁶ L/mol.

On to `COc1cc([C@H]2c3cc4c(cc3C[C@H]3COC(=O)[C@@H]32)OCO4)cc(OC)c1OC`, for which, in [1], the Activity is 0.05 ×10⁻⁷ M. Further, in [4], the KA came out at 2 ×10⁶ L/mol.

With `COc1cc([C@H]2c3cc4c(cc3[C@@H](O)[C@H]3CSC[C@H]23)OCO4)cc(OC)c1OC`, the Activity in assay [1] came out at 4.3 ×10⁻⁷ M; in assay [2] it was 60 ×10⁻⁷ M; in assay [3], 14 ×10⁻⁷ M; in assay [5], 100 ×10⁻⁷ M. Moreover, in assay [4], the outcome was Active.

For `COc1cc([C@H]2c3cc4c(cc3C[C@H]3CS(=O)(=O)C[C@@H]32)OCO4)cc(OC)c1OC`, the Activity is 69 ×10⁻⁷ M in assay [1], greater than 100 ×10⁻⁷ M in assay [2], 139 ×10⁻⁷ M in assay [3] and greater than 500 ×10⁻⁷ M in assay [5]. In assay [4], the outcome was Active.

Take `COc1cc([C@H]2c3cc4c(cc3C[C@H]3COC[C@@H]32)OCO4)cc(OC)c1OC`: the Activity was determined as 0.52 ×10⁻⁷ M in assay [1]; 6 ×10⁻⁷ M in assay [2]; 20% in assay [11]; 1.4 ×10⁻⁷ M in assay [3]; 8 ×10⁻⁷ M in assay [5]. In addition, the outcome in assay [6], in assay [7] and in assay [8] was inactive. Moreover, in assay [10], the inhibition was 75%. Further, in assay [4], the KA was 0.4 ×10⁶ L/mol.

Regarding `COc1cc([C@H]2c3cc4c(cc3[C@@H](O)[C@H]3COC(=O)[C@@H]23)OCO4)cc(OC)c1OC`, the Activity in assay [1] is 1.9 ×10⁻⁷ M. Moreover, in assay [12], the KA came out at 0.037 ×10⁶ L/mol.

Turning to `COc1cc([C@H]2c3cc4c(cc3C[C@H]3CCC[C@@H]32)OCO4)cc(OC)c1OC`, the Activity in [1] was determined as 6.5 ×10⁻⁷ M; in assay [2], 50 ×10⁻⁷ M; in assay [3], 16 ×10⁻⁷ M; in assay [5], 50 ×10⁻⁷ M. Moreover, in assay [4], the KA was found to be 0.02 ×10⁶ L/mol.

In the case of `COc1cc([C@H]2c3cc4c(cc3C[C@H]3CSC[C@@H]32)OCO4)cc(OC)c1OC`, the Activity in assay [1] was 6 ×10⁻⁷ M; in assay [2] it was 50 ×10⁻⁷ M; in assay [3], 15 ×10⁻⁷ M; in [5], 100 ×10⁻⁷ M. The outcome in assay [4] was Active.

Regarding `COc1cc([C@H]2c3cc4c(cc3[C@@H](O)[C@H]3COC[C@H]23)OCO4)cc(OC)c1OC`, the Activity in [1] came out at 0.59 ×10⁻⁷ M; in assay [2], 6 ×10⁻⁷ M; in [11] it was 13%; in assay [3], 1.3 ×10⁻⁷ M; in assay [5], 10 ×10⁻⁷ M. The outcome in assay [6], in assay [7] and in assay [8] was inactive. Further, the “inhibition (INH)” value in [13] stood at 20%. In addition, the inhibition in assay [10] was 60%. For the same compound, the MEC in assay [9] is 20 µM. In [4], the KA worked out at 0.2 ×10⁶ L/mol.
